Source: patent publication US20240383870A1, “HETEROCYCLIC ALDEHYDE TRAPPING COMPOUNDS AND USES THEREOF” (Aldeyra Therapeutics, Inc., priority 2021, published 2024)
Blank lines part the entries; values can stand above or below the compound they belong to.

How the values were obtained:
MIP2(CXCL2) = assay: Acute LPS-induced sepsis in C57BL/6 mice: MIP2(CXCL2) cytokine detection assay; format: in vivo; settings: 200 mpk PO; LPS-challenged mice, plasma at 6.5 h; unpaired t-test vs vehicle
Source text: FIG. 27 is a graph showing the results of a MIP2(CXCL2) cytokine detection assay in samples collected from mouse subjects after administration of compounds of the present disclosure.
(§1) The primary objective of this study was to collect plasma samples of lipopolysaccharide (LPS) challenged C57BL/6 mice after dose of test compounds to provide a cytokine profile as impacted by prophylactic treatments. This study models acute sepsis, which is a systemic inflammatory syndrome initiated by Gram-negative and Gram-positive bacteria and fungi which infect the lungs, abdomen, bloodstream, and renal or genitourinary tracts. Sepsis patients ultimately die of multiorgan failure which is caused by extensive tissue hypo-oxygenation due to ongoing microvascular leakage, disseminated intravascular coagulation, compromised energy production, and metabolic alterations. Sepsis is characterized by an early systemic inflammatory response phase featuring symptoms, such as tachycardia, fever, hyperventilation, and activation of the complement and coagulation cascades. However, it is now appreciated that a compensatory anti-inflammatory response phase follows, characterized by neuroendocrine-mediated immunosuppression. Since these processes are the result of interaction between cells of inflammation and organs, investigation of the treatment of this syndrome requires the use of intact animal models. The use of ten mice per group allows useful statistical modelling of the results.
(§2) For the data shown in Table 2A, 103 mice (female, 18-22 gram, C57BL/6) were purchased from ENVIGO. The mice were housed in 20 cages of 5 mice per cage with 1 cage of 3 mice as extra. The cages had filter tops and autoclaved bedding, and the animals were placed in quarantine with daily inspection. The treatment groups are detailed in Table 2A below. 10 mice were included in each group. […] MC=methyl cellulose.
(§3) For the data shown in Table 2B, 185 mice (female, 18-22 gram, C57BL/6) were purchased from ENVIGO. The mice were housed in 37 cages of 5 mice per cage. The cages had filter tops and autoclaved bedding, and the animals were placed in quarantine with daily inspection. The treatment groups are detailed in Table 2B below. 10 mice were included in each group. The mice were dosed by oral gavage (P0) at 10 ml/kg as per the table below. MC=methyl cellulose.
(§4) At T=0 h, the mice were dosed with one of the test compounds as described in the above table.
(§5) At T=0.5 h, the mice were injected IP with 1.5 mg/kg […] (Sigma).
(§6) At T=6.5 h, all mice were anesthetized and exsanguinated into pre-chilled EDTA-treated tubes. […]
(§7) A 32-plex cytokine panel was obtained from Eve Technologies. Each cytokine was assessed based against a 7 point curve range in duplicate. […]

IL-6 = assay: Acute LPS-induced sepsis in C57BL/6 mice: IL-6 cytokine detection assay; format: in vivo; settings: 200 mpk PO; LPS-challenged mice, plasma at 6.5 h; unpaired t-test vs vehicle
Source text: FIG. 11 is a graph showing the results of an IL-6 cytokine detection assay in samples collected from mouse subjects after administration of compounds of the present disclosure.
as §1
(§8) For the data shown in Table 2A, 103 mice (female, 18-22 gram, C57BL/6) were purchased from ENVIGO. The mice were housed in 20 cages of 5 mice per cage with 1 cage of 3 mice as extra. The cages had filter tops and autoclaved bedding, and the animals were placed in quarantine with daily inspection. The treatment groups are detailed in Table 2A below. 10 mice were included in each group. The mice were dosed by oral gavage (PO) at 10 ml/kg as per the table below. MC=methyl cellulose.
as §3, §4, §5, §6, §7

[1] = test system: leukemia inhibitory factor (LIF); assay: Acute LPS-induced sepsis in C57BL/6 mice: leukemia inhibitory factor (LIF) cytokine detection assay; format: in vivo; settings: 200 mpk PO; LPS-challenged mice, plasma at 6.5 h; unpaired t-test vs vehicle
Source text: FIG. 21 is a graph showing the results of a leukemia inhibitory factor (LIF) cytokine detection assay in samples collected from mouse subjects after administration of compounds of the present disclosure. LIF is an interleukin 6 class cytokine that affects cell growth by inhibiting differentiation.
as §1, §8, §3, §4, §5
(§9) At T=6.5 h, all mice were anesthetized and exsanguinated into pre-chilled EDTA-treated tubes. The blood was processed to plasma which was stored in labeled 0.5 polypropylene snap-cap tubes (0.5 mL Eppendorf Safe-Lock Tubes (Fisher Scientific) at −80° C.
(§10) Preparation of vehicle: 1.0 gram of methyl cellulose (Sigma) was dissolved in 200 mL of water (USP purified) to make a solution of 0.5% methyl cellulose in water. Preparation of LPS solution: 6 mg of LPS (from Escherichia Coli 055:B5, Cat #L2880, Sigma Lot #057m4013) was dissolved in 20 ml of saline to give a LPS solution of 0.3 mg/ml. All mice were injected with 5 ml/kg (1.5 mg/kg) at the scheduled time by intraperitoneal injection.
as §7

[2] = 4-HNE trapping experiment (aldehyde adduct formation, Example 6); settings: 4-HNE 1.5 eq; 20% Captisol in phosphate buffer pH 7.2; 24-h time period; LCMS
Protocol: Each of compounds ADX-102, I-32, I-8, I-29, and I-31 ([…]) was tested for reactivity using 4-hydroxynonenal (4-HNE) (1.5 eq) as a model aldehyde. ADX-102 is also known as Reproxalap. Each compound was dissolved in a 20% solution of Captisol in phosphate buffer (1 mL, pH=7.2). Then, 4-HNE in ethanol (10 mg/mL solution) was added to the solution. The ensuing reaction was monitored by LCMS analysis. The relative ratio of experimental compound/4-HNE adduct to final composition was plotted against time to provide an indication of reaction rate and level of reaction completeness.

IL-12(p70) = assay: Acute LPS-induced sepsis in C57BL/6 mice: IL-12(p70) cytokine detection assay; format: in vivo; settings: LPS-challenged mice, plasma at 6.5 h, unpaired t-test vs vehicle
Source text: FIG. 16 is a graph showing the results of an IL-12(p70) cytokine detection assay in samples collected from mouse subjects after administration of compounds of the present disclosure.
as §1, §2, §3, §4, §5, §9, §10
A 32-plex cytokine panel was obtained from Eve Technologies. Each cytokine was assessed based against a 7 point curve range in duplicate. The average of the two replicate analyses was used for statistics. Unpaired t-tests were performed using Excel™ contrasting vehicle against each treatment group. One star indicates P<0.05. […]

IL-2 = assay: Acute LPS-induced sepsis in C57BL/6 mice: IL-2 cytokine detection assay; format: in vivo; settings: 200 mpk PO; LPS-challenged mice, plasma at 6.5 h; unpaired t-test vs vehicle
Source text: FIG. 7 is a graph showing the results of an IL-2 cytokine detection assay in samples collected from mouse subjects after administration of compounds of the present disclosure.
as §1, with “Since these processes are the result of interaction between cells of inflammation and organs, investigation of the treatment of this syndrome requires the use of intact animal models. The use of ten mice per group allows useful statistical modelling of the results.” left out
as §7

IL-9 = assay: Acute LPS-induced sepsis in C57BL/6 mice: IL-9 cytokine detection assay; format: in vivo; settings: 200 mpk PO; LPS-challenged mice, plasma at 6.5 h; unpaired t-test vs vehicle
Source text: FIG. 13 is a graph showing the results of an IL-9 cytokine detection assay in samples collected from mouse subjects after administration of compounds of the present disclosure.
as §1
as §8, with “cellulose. […]” for “cellulose.”
as §7

KC = assay: Acute LPS-induced sepsis in C57BL/6 mice: KC cytokine detection assay; format: in vivo; settings: 200 mpk PO; LPS-challenged mice, plasma at 6.5 h; unpaired t-test vs vehicle
Source text: FIG. 20 is a graph showing the results of a KC cytokine detection assay in samples collected from mouse subjects after administration of compounds of the present disclosure.
as §1, §8, §3, §4, §5, §9, §10
A 32-plex cytokine panel was obtained from Eve Technologies. Each cytokine was assessed based against a 7 point curve range in duplicate. The average of the two replicate analyses was used for statistics. Unpaired t-tests were performed using Excel™ contrasting vehicle against each treatment group. One star indicates P<0.05. Two stars indicates P<0.01. Three stars indicates P<0.001. Four stars indicates P<0.0001. Most, but not all, statistically significant results are indicated with star(s).

IL-15 = assay: Acute LPS-induced sepsis in C57BL/6 mice: IL-15 cytokine detection assay; format: in vivo; settings: 100 mpk IP; LPS-challenged mice, plasma at 6.5 h; unpaired t-test vs vehicle
IL-3 = assay: Acute LPS-induced sepsis in C57BL/6 mice: IL-3 cytokine detection assay; format: in vivo; settings: 100 mpk IP; LPS-challenged mice, plasma at 6.5 h; unpaired t-test vs vehicle
G-CSF = assay: Acute LPS-induced sepsis in C57BL/6 mice: G-CSF cytokine detection assay; format: in vivo; settings: 100 mpk IP; LPS-challenged mice, plasma at 6.5 h; unpaired t-test vs vehicle
eotaxin = assay: Acute LPS-induced sepsis in C57BL/6 mice: eotaxin cytokine detection assay; format: in vivo; settings: 100 mpk IP; LPS-challenged mice, plasma at 6.5 h; unpaired t-test vs vehicle
IFNγ = assay: Acute LPS-induced sepsis in C57BL/6 mice: IFNγ cytokine detection assay; format: in vivo; settings: 100 mpk IP; LPS-challenged mice, plasma at 6.5 h; unpaired t-test vs vehicle
MIP-1a(CCL3) = assay: Acute LPS-induced sepsis in C57BL/6 mice: MIP-1a(CCL3) cytokine detection assay; format: in vivo; settings: 100 mpk IP; LPS-challenged mice, plasma at 6.5 h; unpaired t-test vs vehicle
IL-10 = assay: Acute LPS-induced sepsis in C57BL/6 mice: IL-10 cytokine detection assay; format: in vivo; settings: 100 mpk IP; LPS-challenged mice, plasma at 6.5 h; unpaired t-test vs vehicle
IL-17 = assay: Acute LPS-induced sepsis in C57BL/6 mice: IL-17 cytokine detection assay; format: in vivo; settings: 100 mpk IP; LPS-challenged mice, plasma at 6.5 h; unpaired t-test vs vehicle
Source text: FIG. 19 is a graph showing the results of an IL-17 cytokine detection assay in samples collected from mouse subjects after administration of compounds of the present disclosure.
as §1, §2, §3, §4, §5, §6, §7

IL-7 = assay: Acute LPS-induced sepsis in C57BL/6 mice: IL-7 cytokine detection assay; format: in vivo; settings: 100 mpk IP; LPS-challenged mice, plasma at 6.5 h; unpaired t-test vs vehicle

- 4-HNE binding (rate of formation of aldehyde adduct) [2]: the best binding
Structure (SMILES): CC(C)(O)c1cc2c(cc1N)OCO2 [Compound I-29]
- MIP-2: significant cytokine change vs. vehicle (MIP2(CXCL2)): * (One star indicates P<0.05)
- IL-6: significant cytokine change vs. vehicle (IL-6): ** (Two stars indicates P<0.01)
- LIF: significant cytokine change vs. vehicle [1]: **** (Four stars indicates P<0.0001)
- IL-12 (p70): significant cytokine change vs. vehicle (IL-12(p70); 200 mpk PO): **** (Four stars indicates P<0.0001)
- IL-2: significant cytokine change vs. vehicle (IL-2): ** (Two stars indicates P<0.01)
- IL-9: significant cytokine change vs. vehicle (IL-9): *** (Three stars indicates P<0.001)
- KC: significant cytokine change vs. vehicle (KC): * (One star indicates P<0.05)

Structure (SMILES): CC(O)(c1sc2ccccc2c1N)C(F)(F)F (stereo not drawn) [Compound I-1, 2-(3-aminobenzo[b]thiophen-2-yl)-1,1,1-trifluoropropan-2-ol]
- IL-15: significant cytokine change vs. vehicle (IL-15): ** (Two stars indicates P<0.01)
- IL-3: significant cytokine change vs. vehicle (IL-3): **** (Four stars indicates P<0.0001)
- G-CSF: significant cytokine change vs. vehicle (G-CSF): * (One star indicates P<0.05)
- Eotaxin: significant cytokine change vs. vehicle (eotaxin): * (One star indicates P<0.05)
- IL-12 (p70): significant cytokine change vs. vehicle (IL-12(p70); 100 mpk IP): * (One star indicates P<0.05)
- IFNy: significant cytokine change vs. vehicle (IFNγ): **** (Four stars indicates P<0.0001)
- MIP-1a: significant cytokine change vs. vehicle (MIP-1a(CCL3)): ** (Two stars indicates P<0.01)
- IL-10: significant cytokine change vs. vehicle (IL-10): **** (Four stars indicates P<0.0001)
- IL-17: significant cytokine change vs. vehicle (IL-17): *** (Three stars indicates P<0.001)
- IL-7: significant cytokine change vs. vehicle (IL-7): * (One star indicates P<0.05)
